These results are taken from patent US10814006B2, “Fluorescent prodrugs” (UNIVERSITY OF IOWA RESEARCH FOUNDATION, priority 2015, dated 2020).

For orientation: IC50 means the concentration at which inhibition is half-maximal. A high value points to a need for much substance. One may read the half-life as the time in which the quantity being followed falls by half.

Each structure is given as a SMILES string. Entries after “also recorded” stand apart in the source; their conditions may differ. Where two headings read alike, the source gives them in different places.

Data set [1] deals with K562 cells. The experiment in a line: Proliferation assay, K562 cells (CellQuantiBlue). The class given is cell-based. Conditions: 72 hours; for IC50: K562 cells, QB assay. As for the experimental part:
(§1) K562 cells were cultured in fresh K562 media (RPMI-1640, 10% heat-inactivated Fetalclone III, 1× penicillin/streptomycin). Daudi and RPMI-8226 cells were cultured in fresh Daudi/RPMI media (RPMI-1640, 10% heat-inactivated FBS, 1× penicillin/streptomycin). Gamma delta T cells were cultured as described previously. Briefly, cells were expanded from peripheral blood mononuclear cells in fresh T cell media (RPMI-1640, 10% heat-inactivated FBS, 1× HEPES, pyruvate, non-essential amino acids, penicillin/streptomycin, beta-mercaptoethanol) and added to 6-well plates. Cells were stimulated with test compounds for three days at concentrations indicated in the text. Cells were washed twice then cultured for another eleven days after compound removal. Human interleukin 2 (5 ng/mL) was supplemented every three days. Experiments were performed at least three times independently using at least two different blood donors.
(§2) To assess K562 proliferation, 10000 cells/well were added to 96-well plates in 100 μL K562 media in the presence of test compounds. Similarly, experiments with Daudi cells were initiated at 5000 cells/well and RPMI8226 cells initiated at 6000 cells/well. The cell concentrations were determined by prior dose response experiments to maximize proliferation rates. Cells were allowed to proliferate for 72 hours. During the last 2 hours, cells were labeled with 10 μL of CellQuantiBlue reagent and scanned with a Victor plate reader.

For another data set, the system named is RPMI-8226 cells. The data set is described as follows: Proliferation assay, RPMI-8226 cells (CellQuantiBlue). Conditions: 72 hours; for IC50: RPMI-8226 cells, QB assay. In kind it is cell-based. As for the experimental part: as §1, §2
The subject of a further data set is Daudi cells. The data set is described as follows: Proliferation assay, Daudi cells (CellQuantiBlue). The note with it: 72 hours; for IC50: Daudi cells, QB assay. In kind it is cell-based. As for the experimental part: as §1, §2
The test system of another data set is Jurkat cells. The experiment in a line: Proliferation assay, Jurkat cells (CellQuantiBlue). In kind it is cell-based. Conditions: 72 hours; for IC50: Jurkat cells, QB assay. As for the experimental part: [Worded in the source for another cell line; this cell line is reported under the same test.] as §2
The subject of data set [2] is primary human gamma delta T cells (Vγ9Vδ2 T cells). The note with it: cited from earlier work.
Data set [3] can be described thus: pH dependence of fluorescence intensity. Conditions: aqueous solutions, pH 6 vs pH 3. The class given is physicochemical. The text has this: The use of the MOCCA prodrugs as probes with which to determine rates of biological deprotection (FIG. 4) was examined. All three compounds were readily detected by spectrophotometry with excitation maxima of 360 nm and emission maxima of 410 nm in aqueous solutions. Importantly, the fluorescence intensity of the free MOCCA group was strongly dependent upon pH of the solvent (FIG. 4A), correlating with the expected protonation of the carboxylic acid. At pH 6 the intensity of the free MOCCA group was less than 10% of its intensity at pH 3. At the same time, the fluorescence intensity of the MOCCA prodrugs was not pH dependent. Taken together, the MOCCA prodrugs would be expected to rapidly lose fluorescence intensity during metabolism at neutral pH, as the free MOCCA group is released from the prodrug and remains in the deprotonated form.

Data set [4] relates to primary human gamma delta T cells (Vγ9Vδ2 T cells). The data set is described as follows: Gamma delta T cell expansion from PBMCs. In kind it is cell-based. Conditions: for EC50: 72 hours treatment; for gamma delta T cell agonist activity: PBMCs, CD3 and gamma delta TCR surface staining. As for the experimental part: as §1
Total gamma delta TCR was labeled using FITC-anti-human Pan gamma delta TCR antibody and CD3 was labeled using PE-conjugated anti-human CD3 as described.
The MOCCA prodrugs were also evaluated in a functional assay of their ability to stimulate proliferation of primary human gamma delta T cells. Dose response experiments were performed with the experimental compounds—MOCCA-Me-C-HMBP and MOCCA-POM-C-HMBP. POM-Me-C-HMBP, POM2-C-HMBP, Me-C-HMBP, C-HMBP or HMBPP were used as positive controls. Unstimulated cells were used as a negative control. Cells were treated for 72 hours with test compounds, washed, then expanded for 11 additional days prior to quantification to assess proliferation.

Data set [5] can be described thus: Plasma metabolism by loss of fluorescence (spectrophotometry). In kind it is in vitro ADME, human. As for the experimental part:
(§3) Compounds were exposed to PBS, K562 cells in PBS, or 50% pooled human plasma in PBS. K562 cells were used at a concentration of 1 million per mL. The fluorescence was detected using a Victor X5 plate reader with excitation at 355 nm and emissions at 405. Compounds were mixed with each biological matrix to a final concentration of 10 μM on ice. A baseline reading was measured. Compounds were incubated for one hour at 37° C. and subsequent readings were taken every 15 minutes.
This assay was then adapted to a 384-well-plate format for use in a plate reader equipped with a 355/40 nm excitation filter and a 405/10 nm emission filter. As expected, the fluorescence intensity of MOCCA-Me-C-HMBP in PBS was much higher than that of the free MOCCA group in PBS (FIG. 4B). Additionally, the fluorescence of the free MOCCA group was further reduced when incubated in human plasma (FIG. 4C). […] Therefore, the esterase-mediated hydrolysis of MOCCA-Me-C-HMBP could be readily assessed by quantification of the two-step (release followed by quenching) loss of fluorescence following exposure to various biological matrices.
(§4) The prodrugs and the MOCCA protecting group were stable in PBS (FIG. 5A). […] The half-life was determined to be 7 minutes in this assay. […] In order to confirm that the loss of fluorescence of MOCCA-Me-C-HMBP was indeed due to hydrolysis of the MOCCA-phosphonate ester, the end products were extracted and analyzed by thin layer chromatography. MOCCA-Me-C-HMBP was fully hydrolyzed to yield the free MOCCA group in the presence of human plasma within 40 minutes (FIG. 5D). Loss of the prodrug occurred at the same time as the appearance of the MOCCA free acid.

Data set [6] in a line: Plasma metabolism by thin layer chromatography. In kind it is in vitro ADME. Conditions: human plasma. The procedure:
Compounds were exposed to cells, plasma, media, or PBS as indicated in the text in 100 μL volumes. Compounds were extracted from all biological mixtures using 200 μL of organic solvent containing 95% dichloromethane, 5% ethanol, and 0.25% glacial acetic acid. Extracts were separated by normal phase […] using 95% dichloromethane, 5% ethanol, and 0.25% glacial acetic acid as the mobile phase. Compounds were visualized under UV light.
as §4

In data set [7] the test system is K562 cells. The data set is described as follows: Quantification of cellular uptake in K562 cells. In kind it is cell-based. The note with it: K562 cells in PBS, 10 μM. As for the experimental part: as §3
The compounds were then used to examine rates of internalization into K562 cells. […] That is, within hours, effectively all of the drug can pass through the cells.

The mark [8] stands for this setting: Reference: Hsiao et al., read-out: EC50 for T cell expansion.
Setting [9] is: dose response curves, read-out: EC50, gamma delta T cell proliferation.

As to `C/C(=C\CCP(=O)(O)O)CO` [C-HMBP], the IC50 in the data set on K562 cells [1], in the data set on RPMI-8226 cells, in the data set with Daudi cells and in the data set with Jurkat cells was > 100 µM throughout. Moreover, in data set [2] (setting [8]), the EC50 is 4 µM.

Regarding `COc1ccc2cc(C(=O)O)c(=O)oc2c1` [MOCCA (1), 7-Methoxy-2-oxo-2H-chromene-3-carboxylic acid], in the data set with K562 cells [1] (concentrations up to 100 μM), the “cellular toxicity, K562” value is reported as “no cellular toxicity”. The IC50 in the data set on K562 cells [1] (Homo sapiens), in the data set on RPMI-8226 cells (Homo sapiens), with Daudi cells (Homo sapiens) and with Jurkat cells (Homo sapiens) was > 100 µM each time. For the same compound, the “cellular toxicity, RPMI-8226” value with RPMI-8226 cells (concentrations up to 100 μM) is “no cellular toxicity”. Further, the “cellular toxicity, Daudi” value in the data set with Daudi cells (concentrations up to 100 μM) was “no cellular toxicity”. For the same compound, the “cellular toxicity, Jurkat” value with Jurkat cells (concentrations up to 100 μM) is “no cellular toxicity”. Besides, in data set [3], the “fluorescence intensity at pH 6 relative to intensity at pH 3” value was “less than 10%”.

With `COc1ccc2cc(C(=O)OCOP(=O)(CC/C=C(\C)CO)OC)c(=O)oc2c1` (stereo not drawn) [MOCCA-Me—C-HMBP (5)], the IC50 with K562 cells [1] (Homo sapiens) was > 100 µM; in the data set with RPMI-8226 cells (Homo sapiens), 64 µM; with Daudi cells (Homo sapiens), > 100 µM; in the data set with Jurkat cells (Homo sapiens) it was > 100 µM. For the same compound, the EC50 in data set [4] (Homo sapiens, T-cell, 11 additional days expansion, Reference: none, read-out: EC50 for T cell expansion) worked out at 0.018 µM; in data set [4] (Homo sapiens, T-cell, dose response curves, read-out: EC50, gamma delta T cell proliferation), 0.018 µM. The “gamma delta T cell agonist activity” value in [4] is recorded as “functioned as a gamma delta T cell agonist; also recorded: potent gamma delta T cell agonist”. In addition, the “increase in activity of the MOCCA protected compound over Me-C-HMBP” value in data set [4] (ratio of EC50 values) was found to be 1300 fold. Moreover, in data set [5] (50% human plasma in PBS, spectrophotometry), the “order of decay kinetics in plasma” value came out at 2nd order kinetics. Further, the half-life at 10 μM in data set [5] (50% pooled human plasma in PBS, 50% human plasma in PBS, spectrophotometry) amounted to 7 min. In addition, the “relative rate of plasma metabolism” value in data set [5] (human plasma) is “metabolized more rapidly relative to the bulkier MOCCA-POM-C-HMBP”. In addition, the “time to full hydrolysis to the free MOCCA group” value in data set [6] was ≤ 40 min. The half-life in [6] (read-out: half-life of enzymatic release) is 7.8 min. The “cellular uptake / cellular metabolism in K562 cells” value in the data set on K562 cells [7] is given as “faster than that of MOCCA-POM-C-HMBP”.

`COc1ccc2cc(C(=O)OCOP(=O)(CC/C=C(\C)CO)OCOC(=O)C(C)(C)C)c(=O)oc2c1` (stereo not drawn) [MOCCA-POM (9)]: the IC50 in the data set on K562 cells [1] is > 100 µM; in the data set with RPMI-8226 cells, 43 µM; in the data set with Daudi cells, 56 µM; in the data set on Jurkat cells it was 53 µM. For the same compound, the “gamma delta T cell agonist activity” value in [4] is recorded as “functioned as a gamma delta T cell agonist”. Further, the EC50 in data set [4] (setting [9]) is 0.0039 µM.

Turning to `C1CN2CCN1CC2.COP(=O)(O)CC/C=C(\C)CO` [Me—C-HMBP (4)], the IC50 with K562 cells [1], with RPMI-8226 cells, in the data set on Daudi cells and in the data set with Jurkat cells was > 100 µM in each case. In addition, the EC50 in data set [4] (setting [9]) turned out to be 23 µM.

As to `C/C(=C\CCP(=O)(OCOC(=O)C(C)(C)C)OCOC(=O)C(C)(C)C)CO` [POM2-C-HMBP (7)], the IC50 with K562 cells [1] is > 100 µM; with RPMI-8226 cells, 44 µM; with Daudi cells, 58 µM; in the data set with Jurkat cells, > 100 µM. In addition, the EC50 in data set [2] (published value, unit inferred, read-out: published EC50 value, gamma delta T cell proliferation) was 0.0054 µM.

As to `COP(=O)(CC/C=C(\C)CO)OCOC(=O)C(C)(C)C` (stereo not drawn) [POM-Me—C-HMBP], the IC50 with K562 cells [1], in the data set with RPMI-8226 cells, with Daudi cells and in the data set on Jurkat cells was > 100 µM each time. The “gamma delta T cell agonist activity” value in [4] is “not statistically different from that of POM-Me-C-HMBP”. Also, the EC50 in data set [2] (setting [8]) was 0.52 µM; in [2] (published value, Hsiao et al. 2014, read-out: published EC50, gamma delta T cell proliferation), 0.5 µM.
